Data reported in US20250188110A1, “SPECIFIC SMALL MOLECULE INHIBITORS THAT BLOCK KMT9 METHYLTRANSFERASE ACTIVITY AND FUNCTION” (ALBERT-LUDWIGS-UNIVERSITÄT FREIBURG, priority 2021, published 2025).

Columns and labels:
KMT9 [1] = target: T1, KMT9 (Homo sapiens, UniProt Q9Y5N5); assay: Microscale thermophoresis (MST) KMT9 binding; details: microscale thermophoresis, His-tag labelled KMT9 (20 nM); read-out: MST
T1 sequence (Q9Y5N5 1-214): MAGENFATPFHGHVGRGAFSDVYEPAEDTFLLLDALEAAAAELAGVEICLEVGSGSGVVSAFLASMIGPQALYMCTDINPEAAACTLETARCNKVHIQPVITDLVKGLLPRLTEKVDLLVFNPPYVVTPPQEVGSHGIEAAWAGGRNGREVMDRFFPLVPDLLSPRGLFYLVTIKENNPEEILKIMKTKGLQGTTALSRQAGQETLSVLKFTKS
T1 sequence (Q9UI30 1-120 isoform Q9UI30-2 partner): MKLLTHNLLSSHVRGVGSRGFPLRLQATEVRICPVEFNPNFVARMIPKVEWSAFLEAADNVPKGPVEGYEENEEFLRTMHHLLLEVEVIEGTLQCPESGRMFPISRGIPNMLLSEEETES
Method in brief: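 Kd from microscale thermophoresis: compound series against 20 nM His-KMT9 labelled via RED-Tris-NTA, buffer 25 mM HEPES (pH 7.5)/100 mM NaCl/1 mM DTT/0.05% Tween, 40% MST power, 100% LED. Reported as classes: A ≤10 nM, B >10–100 nM, C >100–1000 nM, D >1000 nM.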

KMT9 [2] = target: T1, KMT9; assay: KMT9 thermal shift assay (SyproOrange); format: binding; details: ΔTm; 500 µM compound, 2 μM KMT9, 5X SO; read-out: Thermal shift
Method in brief: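 ΔTm versus DMSO-only control is reported in bins (>20 K, 15–20 K, 10–15 K, ≤10 K), using Tm from Boltzmann sigmoidal fits of SyproOrange melt curves. KMT9 with compound in pH 8.5 BTP buffer containing MgCl2 and DTT was preincubated at 25° C, then ramped 1° C per 15 s up to 95° C.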

KMT9 [3] = target: T1, KMT9; assay: KMT9 methyltransferase inhibition assay, 3H-SAM scintillation (entries 1-154); format: biochemical; details: entries 1-154: 3H-SAM assay, 25 nM KMT9, 5 μM ETF1
Method in brief: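 Tritium transfer from SAM (0.3 μM 3H-SAM, 0.7 μM unlabelled, final) to 5 μM ETF1 fragment by 25 nM KMT9 was measured after 2 h at 30° C, pH 8.5. Precipitated peptide was collected on filters and scintillation counted; IC50 came from a four-parameter fit of inhibition normalised to controls.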

Row | Kd (KMT9 [1]) [µM] | ΔTm at 500 µM (KMT9 [2]) [°C] | IC50 (KMT9 [3]) [µM] | SMILES
1 | 0.01 to 0.1 | 15 to 20 | 0.1 to 1 | Nc1ncnc2c1c(-c1ncc[nH]1)cn2[C@@H]1C[C@H](CNCCCNCCc2ccccc2)[C@@H](O)[C@H]1O [473 (347), (1R,2S,3R,5R)-3-(4-Amino-5-(1H-imidazol-2-yl)-7H-pyrrolo[2,3-d]pyrimidin-7-yl)-5-(((3-(phenethylamino)propyl)amino)methyl) cyclopentane-1,2-diol]
2 | 0.01 to 0.1 | 15 to 20 | 1 to 10 | CCc1cn([C@@H]2C[C@H](CNCCCNCCc3cccc(Oc4ccccc4)c3)[C@@H](O)[C@H]2O)c2ncnc(N)c12 [459 (332), (1R,2S,3R,5R)-3-(4-Amino-5-ethyl-7H-pyrrolo[2,3-d]pyrimidin-7-yl)-5-(((3-((3-phenoxyphenethyl)amino)propyl)amino)methyl) cyclopentane-1,2-diol]
3 | 0.1 to 1 | 10 to 15 | 0.1 to 1 | CNc1ncnc2c1ccn2[C@@H]1C[C@H](C(=O)NCCCNCCc2ccc(Oc3ccc(Cl)cc3)c(F)c2)[C@@H](O)[C@H]1O [355 (259), (1S,2R,3S,4R)—N-(3-((4-(4-chlorophenoxy)-3-fluorophenethyl)amino)propyl)-2,3-dihydroxy-4-(4-(methylamino)-7H-pyrrolo[2,3-a]pyrimidin-7-yl) cyclopentane-1-carboxamide]
4 | > 1 | ≤ 10 | > 10 | COCCn1cc(COc2ccc(CNCCCNC[C@H]3O[C@@H](n4cnc5c(N)ncnc54)[C@H](O)[C@@H]3O)cc2)nn1 [293 (190), (2R,3R,4S,5R)-2-(6-amino-9H-purin-9-yl)-5-(((3-((4-((1-(2-methoxyethyl)-1/-1,2,3-triazol-4-yl)methoxy)benzyl)amino)propyl)amino)methyl)tetrahydrofuran-3,4-diol]
5 | 0.01 to 0.1 | 15 to 20 | 0.1 to 1 | Nc1ncnc2c1c(Br)cn2[C@@H]1C[C@H](CNCCCNCCc2ccc(F)cc2)[C@@H](O)[C@H]1O [319 (220), (1R,2S,3R,5R)-3-(4-amino-5-bromo-7H-pyrrolo[2,3-d]pyrimidin-7-yl)-5-(((3-((4-fluorophenethyl)amino)propyl)amino)methyl) cyclopentane-1,2-diol]
6 | > 1 | ≤ 10 | > 10 | C=Cc1cn([C@@H]2C[C@H](CNCCCNCCc3ccccc3)[C@@H](O)[C@H]2O)c2ncnc(C)c12 [Compound 610, (1R,2S,3R,5R)-3-(4-Methyl-5-vinyl-7H-pyrrolo[2,3-d]pyrimidin-7-yl)-5-(((3-(phenethylamino)propyl)amino)methyl)cyclopentane-1,2-diol]
7 | 0.1 to 1 | 10 to 15 | 1 to 10 | CC(=O)N1CCC(c2cn([C@@H]3C[C@H](CNCCCNCCc4ccccc4)[C@@H](O)[C@H]3O)c3ncnc(N)c23)CC1 [481 (355), 1-(4-(4-Amino-7-((1R,2S,3R,4R)-2,3-dihydroxy-4-(((3-(phenethylamino)propyl)amino)methyl)cyclopentyl)-7H-pyrrolo[2,3-d]pyrimidin-5-yl)piperidin-1-yl)ethan-1-one]
8 | > 1 | ≤ 10 | > 10 | CCNC(=O)NCCCNC(=O)[C@H]1O[C@@H](n2cnc3c(N)ncnc32)[C@H](O)[C@@H]1O [307 (206), (2S,3S,4R,5R)-5-(6-amino-9H-purin-9-yl)-N-(3-(3-ethylureido)propyl)-3,4-dihydroxytetrahydrofuran-2-carboxamide]
9 | 0.01 to 0.1 | 15 to 20 | 1 to 10 | CNc1ncnc2c1ccn2[C@@H]1C[C@H](C(=O)NCCCNCCc2cccc(Oc3ccccc3)c2)[C@@H](O)[C@H]1O [354 (258), (1S,2R,3S,4R)-2,3-dihydroxy-4-(4-(methylamino)-7H-pyrrolo[2,3-d]pyrimidin-7-yl)-N-(3-((3-phenoxyphenethyl)amino)propyl) cyclopentane-1-carboxamide]
10 | 0.1 to 1 | 10 to 15 | 1 to 10 | N#Cc1cn([C@@H]2C[C@H](CNCCCNCCc3ccccc3)[C@@H](O)[C@H]2O)c2ncnc(N)c12 [483 (357), 4-Amino-7-((1R,2S,3R,4R)-2,3-dihydroxy-4-(((3-(phenethylamino)propyl)amino)methyl)cyclopentyl)-7H-pyrrolo[2,3-d]pyrimidine-5-carbonitrile]
11 | > 1 | ≤ 10 | > 10 | C=Cc1cn([C@@H]2C[C@H](CNCCCNCCc3ccccc3)[C@@H](O)[C@H]2O)c2ncnc(Cl)c12 [Compound 612, (1R,2S,3R,5R)-3-{4-chloro-5-ethenylpyrrolo[2,3-d]pyrimidin-7-yl}-5-[{{3-[(2-phenylethyl)amino]propyl}amino)methyl]cyclopentane-1,2-diol]
12 | > 1 | ≤ 10 | > 10 | CN(C)C(=O)[C@H]1C[C@@H](n2cc3c4c(ncnc42)NCCC3)[C@H](O)[C@@H]1O [Compound 625, (1S,2R,3S,4R)-2,3-Dihydroxy-N,N-dimethyl-4-(6,7,8,9-tetrahydro-2H-2,3,5,6-tetraazabenzo[cd]azulen-2-yl)cyclopentane-1-carboxamide]
13 | > 1 | ≤ 10 | > 10 | CNc1ncnc2c1ccn2[C@@H]1C[C@H](C[S+]([O-])CCNCCc2ccccc2)[C@@H](O)[C@H]1O (stereo partly drawn) [432 (304), (1R,2S,3R,5S)-3-(4-(Methylamino)-7H-pyrrolo[2,3-d]pyrimidin-7-yl)-5-(((2-(phenethylamino)ethyl)sulfinyl)methyl) cyclopentane-1,2-diol]
14 | 0.1 to 1 | 10 to 15 | 1 to 10 | O[C@@H]1[C@H](O)[C@@H](C2CCNCC2)C[C@H]1n1cc2c3c(ncnc31)NCCC2 [Compound 490, (1S,2R,3R,5R)-3-(piperidin-4-yl)-5-(6,7,8,9-tetrahydro-2H-2,3,5,6-tetraazabenzo[cd]azulen-2-yl)cyclopentane-1,2-diol]
15 | > 1 | ≤ 10 | > 10 | CNc1ncnc2c1ccn2[C@@H]1C[C@H](CCCCNCCc2ccccc2)[C@@H](O)[C@H]1O [423 (294), (1R,2S,3R,5S)-3-(4-(methylamino)-7H-pyrrolo[2,3-d]pyrimidin-7-yl)-5-(4-(phenethylamino)butyl) cyclopentane-1,2-diol]
16 | > 1 | ≤ 10 | > 10 | CNc1ncnc2c1ccn2[C@@H]1C[C@H](CNC(=O)C2CCCNC2)[C@@H](O)[C@H]1O (stereo partly drawn) [418 (289), N-(((1R,2R,3S,4R)-2,3-dihydroxy-4-(4-(methylamino)-7H-pyrrolo[2,3-d]pyrimidin-7-yl)cyclopentyl)methyl) piperidine-3-carboxamide]
17 | 0.01 to 0.1 | 15 to 20 | 0.1 to 1 | Nc1ncnc2c1c(Br)cn2[C@@H]1C[C@H](CN2CC(CNCCc3ccccc3)C2)[C@@H](O)[C@H]1O [484 (358), (1R,2S,3R,5R)-3-(4-Amino-5-bromo-7H-pyrrolo[2,3-d]pyrimidin-7-yl)-5-((3-((phenethylamino)methyl)azetidin-1-yl)methyl) cyclopentane-1,2-diol]
18 | 0.1 to 1 | 10 to 15 | 1 to 10 | O=S(=O)(c1ccccc1)n1ccc(-c2cn([C@@H]3C[C@H](CNCCCNCCc4ccccc4)[C@@H](O)[C@H]3O)c3ncncc23)n1 [Compound 614, (1S,2R,3R,5R)-3-(((3-(Phenethylamino)propyl)amino)methyl)-5-(5-(1-(phenylsulfonyl)-1H-pyrazol-3-yl)-7H-pyrrolo[2,3-d]pyrimidin-7-yl)cyclopentane-1,2-diol]
19 | > 1 | ≤ 10 | > 10 | Nc1ncnc2c1ncn2[C@@H]1O[C@H](CNCCCNCc2ccc3ccccc3c2)[C@@H](O)[C@H]1O [323 (226), (2R,3R,45,5R)-2-(6-amino-9H-purin-9-yl)-5-(((3-((naphthalen-2-ylmethyl)amino)propyl)amino)methyl)tetrahydrofuran-3,4-diol]
20 | 0.1 to 1 | 10 to 15 | 1 to 10 | Nc1ncnc2c1c(-c1ncns1)cn2[C@@H]1C[C@H](CNCCCNCCc2ccccc2)[C@@H](O)[C@H]1O [Compound 601, (1R,2S,3R,5R)-3-(4-amino-5-(1,2,4-thiadiazol-5-yl)-7H-pyrrolo[2,3-d]pyrimidin-7-yl)-5-(((3-(phenethylamino)propyl)amino)methyl)cyclopentane-1,2-diol]
21 | > 1 | ≤ 10 | 1 to 10 | CNc1ncnc2c1ccn2[C@@H]1C[C@H](CN(CCCNCCc2ccccc2)c2cc[nH]n2)[C@@H](O)[C@H]1O [444 (316)]
